Laboratory results as given in ChEMBL document CHEMBL1133617, “Effect of C9-methyl substitution and C8-C9 conformational restriction on antifolate and antitumor activity of classical 5-substituted 2,4-diaminofuro[2,3-d]pyrimidines” (J Med Chem, 2000).

Tests used:
[1] = Growth inhibition of MTX-resistant R2(Bos) sublines.; assay type: functional, Homo sapiens
FaDu [2] = test: Growth inhibition of human squamous cell carcinoma FaDu cells during continuous Exposure ([…]); assay type: functional, cell-based
[3] = Growth inhibition of MTX-resistant R1 sublines.; assay type: functional, Homo sapiens
FaDu [4] = test: protection of FaDu cells from the growth inhibitory effects of the compound.; assay type: functional, Homo sapiens; parameters: scale not given: the % may be the effect or the level left
FaDu [5] = test: protection of FaDu cells from the growth inhibitory effects by combination of 50 uM of thymidine (TdR).; assay type: functional, Homo sapiens; parameters: scale not given: the % may be the effect or the level left
FaDu [6] = test: protection of FaDu cells from the growth inhibitory effects by 50 uM of hypoxanthine (HX); assay type: functional, Homo sapiens; parameters: scale not given: the % may be the effect or the level left
FaDu [7] = test: protection of FaDu cells from the growth inhibitory effects by 40 uM of thymidine (TdR).; assay type: functional, Homo sapiens; parameters: scale not given: the % may be the effect or the level left
Dihydrofolate reductase [8] = target: T1, Dihydrofolate reductase (Escherichia coli, UniProt P0ABQ4)
T1 sequence (P0ABQ4 whole entry): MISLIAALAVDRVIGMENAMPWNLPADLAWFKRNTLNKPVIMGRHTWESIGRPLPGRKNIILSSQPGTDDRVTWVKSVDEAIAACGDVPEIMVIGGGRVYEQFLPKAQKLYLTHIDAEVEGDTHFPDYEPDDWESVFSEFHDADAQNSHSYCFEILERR
Description: Inhibitory concentration against Escherichia coli Dihydrofolate reductase

Dihydrofolate reductase [9] = target: T2, Dihydrofolate reductase (Homo sapiens, UniProt P00374)
T2 sequence (P00374 whole entry): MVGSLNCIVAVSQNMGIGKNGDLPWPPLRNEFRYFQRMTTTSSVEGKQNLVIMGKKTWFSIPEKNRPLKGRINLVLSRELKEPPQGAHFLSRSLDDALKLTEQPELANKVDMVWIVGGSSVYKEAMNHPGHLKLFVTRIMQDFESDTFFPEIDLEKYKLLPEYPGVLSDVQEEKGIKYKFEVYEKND
Description: Inhibitory concentration against recombinant human (rh) Dihydrofolate reductase

Thymidylate synthase [10] = target: Thymidylate synthase (Rattus norvegicus, UniProt P45352); test: Inhibitory concentration against rat Thymidylate synthase (TS)
Sequence of Thymidylate synthase (Rattus norvegicus, UniProt P45352) (P45352 whole entry): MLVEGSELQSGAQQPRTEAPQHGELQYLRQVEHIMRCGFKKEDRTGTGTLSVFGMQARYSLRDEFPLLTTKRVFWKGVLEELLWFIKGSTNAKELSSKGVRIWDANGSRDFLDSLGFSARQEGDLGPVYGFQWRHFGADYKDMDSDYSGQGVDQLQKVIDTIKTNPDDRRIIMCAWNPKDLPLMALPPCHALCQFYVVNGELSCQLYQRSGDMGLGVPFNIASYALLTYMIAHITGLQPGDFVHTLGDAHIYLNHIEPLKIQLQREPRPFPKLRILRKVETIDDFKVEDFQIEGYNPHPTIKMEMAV

Thymidylate synthase [11] = target: Thymidylate synthase (Homo sapiens, UniProt P04818); test: Inhibitory concentration against recombinant human (rh) Thymidylate synthase (TS)
Sequence of Thymidylate synthase (Homo sapiens, UniProt P04818) (P04818 whole entry): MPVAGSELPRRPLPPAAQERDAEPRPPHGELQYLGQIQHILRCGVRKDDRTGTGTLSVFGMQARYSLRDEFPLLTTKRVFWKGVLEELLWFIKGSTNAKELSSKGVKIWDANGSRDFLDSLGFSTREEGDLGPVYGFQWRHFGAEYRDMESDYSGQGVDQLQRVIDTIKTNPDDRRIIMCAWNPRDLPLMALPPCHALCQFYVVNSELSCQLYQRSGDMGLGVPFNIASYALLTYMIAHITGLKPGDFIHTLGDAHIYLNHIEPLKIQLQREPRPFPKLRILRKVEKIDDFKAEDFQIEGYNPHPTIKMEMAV

Thymidylate synthase [12] = target: T3, Thymidylate synthase (Lactobacillus casei, UniProt P00469); test: Inhibitory concentration against Lactobacillus casei Thymidylate synthase (TS).; parameters: species or system Lacticaseibacillus casei
T3 sequence (P00469 whole entry): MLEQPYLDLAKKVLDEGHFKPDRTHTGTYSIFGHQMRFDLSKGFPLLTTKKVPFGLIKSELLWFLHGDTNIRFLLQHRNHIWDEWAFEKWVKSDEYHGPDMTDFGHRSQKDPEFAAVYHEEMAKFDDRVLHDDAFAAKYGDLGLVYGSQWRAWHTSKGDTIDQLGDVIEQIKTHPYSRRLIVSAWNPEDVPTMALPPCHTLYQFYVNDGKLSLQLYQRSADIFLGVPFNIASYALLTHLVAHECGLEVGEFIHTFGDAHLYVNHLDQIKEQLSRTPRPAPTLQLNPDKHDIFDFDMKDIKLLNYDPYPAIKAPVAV

Dihydrofolate reductase [13] = target: Dihydrofolate reductase (Lactobacillus casei, UniProt P00381); test: Inhibitory concentration against Lactobacillus casei Dihydrofolate reductase; parameters: species or system Lacticaseibacillus casei
Sequence of Dihydrofolate reductase (Lactobacillus casei, UniProt P00381) (P00381 whole entry): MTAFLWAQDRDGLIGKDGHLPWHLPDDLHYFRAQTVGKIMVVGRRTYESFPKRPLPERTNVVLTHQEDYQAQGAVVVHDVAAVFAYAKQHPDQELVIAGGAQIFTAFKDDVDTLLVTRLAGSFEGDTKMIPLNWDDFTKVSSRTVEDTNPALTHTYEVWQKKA

[14] = ratio of vmax to Km
Thymidylate synthase [15] = target: Thymidylate synthase (Escherichia coli, UniProt C3SWJ7); test: Inhibitory concentration against Escherichia coli Thymidylate synthase (TS).
Sequence of Thymidylate synthase (Escherichia coli, UniProt C3SWJ7) (C3SWJ7 whole entry): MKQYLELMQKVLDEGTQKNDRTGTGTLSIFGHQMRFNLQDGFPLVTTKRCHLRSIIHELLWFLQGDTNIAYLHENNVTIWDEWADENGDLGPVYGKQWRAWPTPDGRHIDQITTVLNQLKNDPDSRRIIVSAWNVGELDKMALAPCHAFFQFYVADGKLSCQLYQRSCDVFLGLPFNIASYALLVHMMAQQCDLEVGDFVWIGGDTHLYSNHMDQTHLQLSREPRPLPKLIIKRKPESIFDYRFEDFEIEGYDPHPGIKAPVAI

[16] = target: T4, Bifunctional dihydrofolate reductase-thymidylate synthase (Toxoplasma gondii, UniProt Q07422); test: Inhibitory concentration against Toxoplasma gondii Dihydrofolate reductase
T4 sequence (Q07422 whole entry): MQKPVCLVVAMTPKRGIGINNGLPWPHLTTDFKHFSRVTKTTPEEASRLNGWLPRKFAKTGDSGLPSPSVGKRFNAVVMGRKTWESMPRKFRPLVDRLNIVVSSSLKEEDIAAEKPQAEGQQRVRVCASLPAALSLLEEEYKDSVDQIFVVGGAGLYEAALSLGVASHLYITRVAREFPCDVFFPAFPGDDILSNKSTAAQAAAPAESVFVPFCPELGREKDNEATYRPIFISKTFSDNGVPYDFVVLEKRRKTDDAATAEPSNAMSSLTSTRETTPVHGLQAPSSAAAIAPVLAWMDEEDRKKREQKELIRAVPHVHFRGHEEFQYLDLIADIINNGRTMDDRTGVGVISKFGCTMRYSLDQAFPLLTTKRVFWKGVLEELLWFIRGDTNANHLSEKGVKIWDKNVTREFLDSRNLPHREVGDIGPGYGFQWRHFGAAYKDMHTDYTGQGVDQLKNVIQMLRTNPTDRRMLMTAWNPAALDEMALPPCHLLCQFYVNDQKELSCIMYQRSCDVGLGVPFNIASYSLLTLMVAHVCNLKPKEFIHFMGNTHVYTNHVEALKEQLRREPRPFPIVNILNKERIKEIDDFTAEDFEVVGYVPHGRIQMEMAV

CCRF-CEM = test: Growth inhibition of CCRF-CEM human leukemia cells.; assay type: functional, cell-based
[17] = Growth inhibition of MTX-resistant R30dm sublines.; assay type: functional, Homo sapiens
A253 cell line = test: Growth inhibition of human squamous cell carcinoma A253 cells during continuous Exposure ([…]); assay type: functional, cell-based
Dihydrofolate reductase [18] = target: T2, Dihydrofolate reductase; test: Inhibitory activity against Dihydrofolate reductase
FaDu [19] = test: protection of FaDu cells from the growth inhibitory effects by the combination of 50 uM of hypoxanthine (HX) and 40 uM of thymidine (TdR).; assay type: functional, Homo sapiens; parameters: scale not given: the % may be the effect or the level left
[20] = substrate: C/C(=C/c1coc2nc(N)nc(N)c12)c1ccc(C(=O)N[C@@H](CCC(=O)O)C(=O)O)cc1.C/C(=C\c1coc2nc(N)nc(N)c12)c1ccc(C(=O)N[C@@H](CCC(=O)O)C(=O)O)cc1; test: (§1) Activity as substrate for recombinant human Folyl-polyglutamate synthase (rhFPGS) relative to aminopterin.
[21] = substrate: Nc1nc(N)c2nc(CNc3ccc(C(=O)N[C@@H](CCC(=O)O)C(=O)O)cc3)cnc2n1; test: as §1
[22] = substrate: Nc1nc(N)c2c(CCc3ccc(C(=O)N[C@@H](CCC(=O)O)C(=O)O)cc3)coc2n1; test: as §1
[23] = substrate: CC(Cc1coc2nc(N)nc(N)c12)c1ccc(C(=O)N[C@@H](CCC(=O)O)C(=O)O)cc1; test: as §1
[24] = substrate: C/C(=C\c1coc2nc(N)nc(N)c12)c1ccc(C(=O)N[C@@H](CCC(=O)O)C(=O)O)cc1; test: as §1
[25] = substrate: C/C(=C/c1coc2nc(N)nc(N)c12)c1ccc(C(=O)N[C@@H](CCC(=O)O)C(=O)O)cc1.C/C(=C\c1coc2nc(N)nc(N)c12)c1ccc(C(=O)N[C@@H](CCC(=O)O)C(=O)O)cc1; test: (§2) Activity as substrate for recombinant human Folyl-polyglutamate synthase (rhFPGS)
[26] = substrate: Nc1nc(N)c2nc(CNc3ccc(C(=O)N[C@@H](CCC(=O)O)C(=O)O)cc3)cnc2n1; test: as §2
[27] = substrate: CC(Cc1coc2nc(N)nc(N)c12)c1ccc(C(=O)N[C@@H](CCC(=O)O)C(=O)O)cc1; test: as §2
[28] = substrate: C/C(=C\c1coc2nc(N)nc(N)c12)c1ccc(C(=O)N[C@@H](CCC(=O)O)C(=O)O)cc1; test: as §2

CN(Cc1cnc2nc(N)nc(N)c2n1)c1ccc(C(=O)N[C@@H](CCC(=O)O)C(=O)O)cc1 [METHOTREXATE]
EC50 [1]: 1.6 µM
EC50 (FaDu [2]): 0.0113 µM
EC50 [3]: 0.675 µM
Control (FaDu [4]): 5.75%
Control (FaDu [5]): 102%
Control (FaDu [6]): 11.25%
Control (FaDu [7]): 9.25%

C/C(=C/c1coc2nc(N)nc(N)c12)c1ccc(C(=O)N[C@@H](CCC(=O)O)C(=O)O)cc1.C/C(=C\c1coc2nc(N)nc(N)c12)c1ccc(C(=O)N[C@@H](CCC(=O)O)C(=O)O)cc1 (mixture of isomers)
IC50 (Dihydrofolate reductase [8]): 1.1 µM
EC50 [1]: 17 µM
IC50 (Dihydrofolate reductase [9]): 2.2 µM
EC50 (FaDu [2]): 1.4 µM
IC50 (Thymidylate synthase [10]): > 360 µM
IC50 (Thymidylate synthase [11]): > 360 µM
EC50 [3]: 32 µM
IC50 (Thymidylate synthase [12]): > 360 µM
IC50 (Dihydrofolate reductase [13]): 4.4 µM
Ratio [14]: 0.05
IC50 (Thymidylate synthase [15]): > 360 µM
IC50 [16]: 4.4 µM
EC50 (CCRF-CEM): 1.18 µM
EC50 [17]: 6.4 µM
EC50 (A253 cell line): 0.7 µM

Nc1nc(N)c2c(CNCc3ccc(C(=O)N[C@@H](CCC(=O)O)C(=O)O)cc3)coc2n1
IC50 (Dihydrofolate reductase [18]): 10 µM

CN(Cc1coc2nc(N)nc(N)c12)c1ccc(C(=O)N[C@@H](CCC(=O)O)C(=O)O)cc1 [FURO[2,3D]PYRIMIDINE ANTIFOLATE]
IC50 (Thymidylate synthase [11]): > 200 µM
EC50 [3]: 0.807 µM
IC50 (Thymidylate synthase [12]): > 200 µM
IC50 (Dihydrofolate reductase [13]): 0.22 µM
IC50 [16]: 19.8 µM
EC50 [17]: 1.03 µM

Nc1nc(N)c2nc(CNc3ccc(C(=O)N[C@@H](CCC(=O)O)C(=O)O)cc3)cnc2n1
Ratio [14]: 0.23

Nc1nc(N)c2c(CNc3ccc(C(=O)N[C@@H](CCC(=O)O)C(=O)O)cc3)coc2n1
IC50 (Thymidylate synthase [11]): > 200 µM
EC50 [3]: 1.52 µM
IC50 [16]: 0.7 µM
EC50 [17]: 0.663 µM

Nc1nc(N)c2c(CCc3ccc(C(=O)N[C@@H](CCC(=O)O)C(=O)O)cc3)coc2n1
Ratio [14]: 0.07
EC50 [17]: 0.425 µM

CC(Cc1coc2nc(N)nc(N)c12)c1ccc(C(=O)N[C@@H](CCC(=O)O)C(=O)O)cc1 (some centres undefined)
IC50 (Dihydrofolate reductase [8]): 1.1 µM
EC50 [1]: 0.43 µM
EC50 (FaDu [2]): 0.0175 µM
IC50 (Thymidylate synthase [10]): > 360 µM
IC50 (Thymidylate synthase [11]): > 360 µM
EC50 [3]: 0.685 µM
IC50 (Thymidylate synthase [12]): > 360 µM
Control (FaDu [4]): 5.75%
IC50 (Dihydrofolate reductase [13]): 2.1 µM
IC50 (Thymidylate synthase [15]): 100 µM
Control (FaDu [6]): 3.75%
IC50 [16]: 2.1 µM
EC50 (CCRF-CEM): 0.0292 µM
Control (FaDu [7]): 8%
EC50 [17]: 0.22 µM
EC50 (A253 cell line): 0.0285 µM
Control (FaDu [19]): 105.25%

C/C(=C\c1coc2nc(N)nc(N)c12)c1ccc(C(=O)N[C@@H](CCC(=O)O)C(=O)O)cc1
IC50 (Dihydrofolate reductase [8]): 11 µM
IC50 (Dihydrofolate reductase [9]): 42 µM
EC50 (FaDu [2]): > 10 µM
IC50 (Thymidylate synthase [10]): > 360 µM
IC50 (Thymidylate synthase [11]): > 360 µM
IC50 (Thymidylate synthase [12]): > 360 µM
IC50 (Dihydrofolate reductase [13]): 84 µM
Ratio [14]: 0.15
IC50 (Thymidylate synthase [15]): > 360 µM
IC50 [16]: 110 µM
EC50 (CCRF-CEM): 34 µM
EC50 (A253 cell line): > 10 µM

B1: Folylpolyglutamate synthase, mitochondrial (Homo sapiens), Q05932 (protein)
chain: MSRARSHLRAALFLAAASARGITTQVAARRGLSAWPVPQEPSMEYQDAVRMLNTLQTNAGYLEQVKRQRGDPQTQLEAMELYLARSGLQVEDLDRLNIIHVTGTKGKGSTCAFTECILRSYGLKTGFFSSPHLVQVRERIRINGQPISPELFTKYFWRLYHRLEETKDGSCVSMPPYFRFLTLMAFHVFLQEKVDLAVVEVGIGGAYDCTNIIRKPVVCGVSSLGIDHTSLLGDTVEKIAWQKGGIFKQGVPAFTVLQPEGPLAVLRDRAQQISCPLYLCPMLEALEEGGPPLTLGLEGEHQRSNAALALQLAHCWLQRQDRHGAGEPKASRPGLLWQLPLAPVFQPTSHMRLGLRNTEWPGRTQVLRRGPLTWYLDGAHTASSAQACVRWFRQALQGRERPSGGPEVRVLLFNATGDRDPAALLKLLQPCQFDYAVFCPNLTEVSSTGNADQQNFTVTLDQVLLRCLEHQQHWNHLDEEQASPDLWSAPSPEPGGSASLLLAPHPPHTCSASSLVFSCISHALQWISQGRDPIFQPPSPPKGLLTHPVAHSGASILREAAAIHVLVTGSLHLVGGVLKLLEPALSQ
Vmax [20]: 0.56
Vmax [21]: 1
Vmax [22]: 0.065
Vmax [23]: 0.52
Vmax [24]: 0.76
Km [25]: 10.3 µM
Km [26]: 4.5 µM
Km [27]: 1.2 µM
Km [28]: 5.3 µM
